Patent US12618044B2, “Specification of functional cranial placode derivatives from human pluripotent stem cells” (MEMORIAL SLOAN-KETTERING CANCER CENTER, priority 2013, dated 2026)
Where a name gives a salt, the structure may show the parent alone.

Key:
Format in all cases: cell-based, human
SIX1::GFP cells = test: PIP-E6 pituitary induction and hormone release
Method: Induction of anterior pituitary gland cells: Pituitary placode cells were induced by culturing SIX1::GFP cells according to the PIP-E6 protocol, wherein pituitary factors SHH, FGF8, FGF10 and/or hypothalamus CM were supplemented in the culture media from days 6-15.
Induction of anterior pituitary gland cells: SIX1::GFP hPSCs were cultured according to a modified PIP-E6 protocol, wherein pituitary factors such as FGF8, FGF10 or SHH, etc., were included in the culture media from days 6-14. Cells were sorted based on expression of SIX1::GFP, and were replated at a concentration of 10,000 cells/cm^2 on PO/L/F, and were incubated with small molecule/growth factors for 2 weeks. (FIG. 68). […] (FIG. 69).

pre-placodal cells = test: Pituitary placode specification under modified PIP
Text: Further treatment with agonists for SHH signaling (FIG. 39A) at the pre-placode stage (day 7-11) induced expression of the oral ectoderm marker SIX6 and PITX1 (FIG. 38B), master regulators of pituitary gland development (Tremblay et al., 1998).
Endocrine cells of the anterior pituitary gland are derived from three main precursors lineages (Scully and Rosenfeld, 2002). […] Induction of PIT1 and GATA2 precursor lineages was less efficient but was increased following treatment with the γ-secretase inhibitor DAPT (FIGS. 38F, 38G).
Differentiation of hormone producing cells: During placode induction protocol, Sonic Hedgehog (C25II-R&D 100 ng/ml) and Purmorphamine (Stemgent, 1 μM) were added between days 7-11 of PIP to promote differentiation towards pituitary placode anlage. The cells were maintained without passaging in N2 medium and treated with additional factors such as DAPT (Tocris, 10 μM), between day 13 and day 17 of differentiation to induce PIT1+ and GATA2+ precursor cells (see FIG. 39A).

hESC = test: Neural induction of hESC by dual SMAD inhibition (PAX6 expression); conditions: 10 uM to 30 nM, each added to 10 uM of SB431542
Method: In one embodiment, the present invention contemplates a method establishing an even cell distribution for inducing homogenous neural differentiation of hESCs. To this end, undifferentiated hESC were dissociated into single cells and re-plated onto Matrigel coated dishes in conditioned medium supplement with ROCK inhibitor, Y-27632 (Wananabe et al., 2007). After 72 hours, cells were switched from hESC conditions to knock-out serum replacement medium (KSR) containing either Noggin, SB4315242, or both factors and allowed to differentiate for a total of 11 days (FIG. 1A). […] Neural induction was monitored by expression of PAX6, an early marker of neuroectodermal differentiation (Callaerts, et al., Annu Rev Neurosci 20:483 (1997).
hESC cultures were disaggregated using accutase for 20 minutes, washed using hESC media and pre-plated on gelatin for 1 hour at 37° C. in the presence of ROCK inhibitor to remove MEFs. The nonadherent hESC were washed and plated on matrigel at a density of 10,000-25,000 cells/cm^2 on matrigel (BD) coated dishes in MEF conditioned hESC media (CM) spiked with 10 ng/mL of FGF-2 and ROCK-inhibitor. […] The ROCK inhibitor was withdrawn, and hESC were allowed to expand in CM for 3 days or until they were nearly confluent. […]

[1] = test system: NSB derived neural precursor cells; test: Ventral patterning of NSB derived neural precursor cells by FP conditioned media; conditions: with CM from hESC derived FP
Text: The FP has important functional roles during development in neural patterning and axonal path finding (Jessell, 2000). To assess the functional properties of hESCs derived FP conditioned media was isolated at days 9 and 11 and tested for expression of Netrin-1 in the medium using ELISA (FIG. 17A). Under normal NSB conditions, Netrin-1 is detectable at Day 9 and decreases at Day 11 while in the NSB+SHH condition, there is a 3.5 fold increase in Netrin-1 levels, increasing at Day 11 (FIG. 17B). SHH is a critical patterning factor secreted by FP cells and specifying ventral cell types in a dose-dependent manner. To test if hESCs derived FP secretes factors that can specify ventral precursor domains, conditioned media (CM) was isolated at Days 9 and 11 of the differentiation. At Day 6, exogenous SHH was removed and cultures were washed to eliminate any exogenously added SHH from the medium. Naïve neural progenitor cells were isolated at Day 11 of the control (NSB) protocol and cultured with either NSB CM or FP CM. After Day 5 of culture in the presence of CM, the inventors probed for the expression of ventral precursor markers and expression of the SHH responsive gene GLI2. […] Increase in the expression of ventral markers was confirmed at the level of protein (FIG. 17D).

C[C@H](NC(=O)Cc1cc(F)cc(F)c1)C(=O)N[C@H](C(=O)OC(C)(C)C)c1ccccc1 [DAPT]
proportion of each of the three pituitary precursor lineages (SIX1::GFP cells): modulated
Induction of PIT1 and GATA2 precursor lineages (pre-placodal cells): increased

c1cc(-c2cnn3cc(-c4ccc(OCCN5CCCCC5)cc4)cnc23)ccn1 [Dorsomorphin, 6-[4-[2-(1-Piperidinyl)ethoxy]phenyl]-3-(4-pyridinyl)-pyrazolo[1,5-a]pyrimidine dihydrochloride]
efficiency based on the percentage of PAX6+ cells, versus Noggin/SB431542 (hESC): not as high

CC1=C2C[C@H]3[C@@H](CC=C4C[C@@H](O)CC[C@@]43C)[C@@H]2CC[C@]12O[C@@H]1C[C@H](C)CN[C@H]1[C@H]2C [cyclopamine]
NKX2.1, NKX6.1, and GLI2 expression [1]: significantly reduced
